From US9321722B2, “Bis-indolic derivatives, their uses in particular as antibacterials” (UNIVERSITE JOSEPH FOURIER, priority 2011, dated 2016)
In brackets after ≈: the same amount, converted by molar mass. Where a name gives a salt, the structure may show the parent alone. Read-outs that look alike come from different tables or passages of the source.

Tests used:
[1] = tested on: HCT116 (human colon tumor); assay: In vitro cytotoxicity; type: cell-based; conditions: HCT-116, read-out: % of cellular growth inhibition
Protocol: (§1) In vitro cytotoxicity was assayed on three cell lines—KB (human mouth carcinoma), MCR5 (human lung fibroblast) and HCT116 (human colon tumor). Results are presented in table III as % of cellular growth inhibition in presence of 10^−5 M and 10^−6 M of the tested bis-indolic derivatives.

[2] = tested on: KB (human mouth carcinoma); assay: In vitro cytotoxicity; type: cell-based; conditions: read-out: % of cellular growth inhibition
Protocol: as §1

[3] = tested on: MRC5 (human lung fibroblast); assay: In vitro cytotoxicity; type: cell-based; conditions: MRC5, read-out: % of cellular growth inhibition
Protocol: as §1

[4] = tested on: S. aureus ATCC 106414 (VISA); assay: MIC microdilution (Table I-1); type: cell-based, Staphylococcus aureus; conditions: read after 18 hours
Protocol: (§2) The microdilution method recommended by the Clinical and Laboratory Standard Institute [M07-A8, Vol. 29, N^o 2] was used. The activity of indolic compounds was tested against 29 bacterial strains belonging to 17 different species and 12 different genera (Staphylococcus, Streptococcus, Enterococcus, Listeria, Bacillus, Haemophilus, Escherichia, Klebsiella, Enterobacter, Serratia, Pseudomonas, and Acinetobacter). Bacterial inocula were prepared in Mueller Hinton broth (MH2, bioMerieux, Marcy L'Etoile, France), supplemented with 10% sheep blood for fastidious species (i.e., Streptococcus pneumoniae and Haemophilus influenzae). They were dispensed in 96 well microtiter plates (5×10^5 CFU/ml of final inoculum). Indolic compounds were added to the wells as to obtain two-fold serial concentrations (0.50-128 mg/L of final concentrations). Plates were incubated at 37° C. in ambient air, or at 37° C. in 5% CO2 enriched atmosphere for fastidious species. […] Drug-free cultures served as growth controls. Cultures receiving gentamicin, ciprofloxacin or cefotaxime served as positive controls.

S. aureus ATCC 29213 = assay: MIC microdilution (Table I-1); type: cell-based, Staphylococcus aureus
Protocol: as §2

[5] = tested on: S. aureus ATCC 33592 (MRSA); assay: MIC microdilution (Table I-1); type: cell-based, Staphylococcus aureus; conditions: read after 18 hours
Protocol: as §2

S. aureus ATCC 6538 = assay: MIC microdilution (Table I-1); type: cell-based, Staphylococcus aureus
Protocol: as §2

S. aureus ATCC 9144 = assay: MIC microdilution (Table I-1); type: cell-based, Staphylococcus aureus
Protocol: as §2

S. aureus CIP 103428 = assay: MIC microdilution (Table I-1); type: cell-based, Staphylococcus aureus
Protocol: as §2

[6] = tested on: S. aureus CIP 65.25 (MRSA); assay: MIC microdilution (Table I-1); type: cell-based, Staphylococcus aureus; conditions: read after 18 hours
Protocol: as §2

S. aureus CIP 65.6 = assay: MIC microdilution (Table I-1); type: cell-based, Staphylococcus aureus
Protocol: as §2

S. aureus SA-1199B = assay: MIC microdilution (Table I-1); type: cell-based, Staphylococcus aureus
Protocol: as §2

[7] = tested on: S. epidermidis ATCC 12228; assay: MIC microdilution (Table I-1); type: cell-based, Staphylococcus epidermidis
Protocol: as §2

[8] = tested on: S. epidermidis CIP 103627; assay: MIC microdilution (Table I-1); type: cell-based, Staphylococcus epidermidis
Protocol: as §2

S. epidermidis CIP 81.55 = assay: MIC microdilution (Table I-1); type: cell-based, Staphylococcus epidermidis
Protocol: as §2

[9] = tested on: Acinetobacter baumanii ATCC 19606; assay: MIC microdilution (Table I-1); type: cell-based; conditions: Acinetobacter baumannii, ATCC19606, read after 18 hours
Protocol: as §2

[10] = tested on: Bacillus subtilis CIP 5262; assay: MIC microdilution (Table I-1); type: cell-based
Protocol: as §2

E. faecalis ATCC 29212 = assay: MIC microdilution (Table I-1); type: cell-based
Protocol: as §2

E. faecium CIP 54.32 = assay: MIC microdilution (Table I-1); type: cell-based
Protocol: as §2

[11] = tested on: Enterobacter cloacae ATCC 13047; assay: MIC microdilution (Table I-1); type: cell-based; conditions: ATCC13047, read after 18 hours
Protocol: as §2

[12] = tested on: Escherichia coli ATCC 25922; assay: MIC microdilution (Table I-1); type: cell-based; conditions: ATCC25922, read after 18 hours
Protocol: as §2

[13] = tested on: Haemophilus influenzae ATCC 49766; assay: MIC microdilution (Table I-1); type: cell-based; conditions: Haemophilus influenzae, ATCC49766, 18 h
Protocol: as §2

[14] = tested on: Klebsiella pneumoniae ATCC 35657; assay: MIC microdilution (Table I-1); type: cell-based
Protocol: as §2

[15] = tested on: Listeria innocua CIP 80.11; assay: MIC microdilution (Table I-1); type: cell-based
Protocol: as §2

[16] = tested on: Pseudomonas aeruginosa CIP 5933; assay: MIC microdilution (Table I-1); type: cell-based; conditions: CIP5933, read after 18 hours
Protocol: as §2

[17] = tested on: S. agalactiae (group B) ATCC 12400; assay: MIC microdilution (Table I-1); type: cell-based
Protocol: as §2

S. aureus ATCC 25923 = assay: MIC microdilution (Table I-1); type: cell-based; conditions: Staphylococcus aureus, ATCC25923, read after 18 hours
Protocol: as §2

S. mitis CIP 103335 = assay: MIC microdilution (Table I-1); type: cell-based
Protocol: as §2

S. pneumoniae ATCC 49619 = assay: MIC microdilution (Table I-1); type: cell-based; conditions: Streptococcus pneumoniae, ATCC49619, read after 18 hours
Protocol: as §2

[18] = tested on: S. pyogenes (group A) CIP 104226; assay: MIC microdilution (Table I-1); type: cell-based
Protocol: as §2

[19] = tested on: Serratia marcescens CIP 103551; assay: MIC microdilution (Table I-1); type: cell-based; conditions: CIP103551, read after 18 hours
Protocol: as §2

S. pneumoniae ATCC 6303 = assay: MIC microdilution (Table I-1); type: cell-based, Streptococcus pneumoniae
Protocol: as §2

[20] = tested on: 29 bacterial strains belonging to 17 different species; assay: Intrinsic antibacterial activity, MIC on the bacterial panel; type: cell-based; conditions: result in words
Protocol: as §2

[21] = Staphylococcus aureus, read-out: MIC

O=C(C(=O)N1CCNCC1c1c[nH]c2ccc(Br)cc12)c1c[nH]c2ccc(Br)cc12 (stereo not shown) [Compound 7, 1-(5-bromo-1H-indol-3-yl)-2-(2-(5-bromo-1H-indol-3-yl)piperazin-1-yl)ethane-1,2-dione hydrochloride]
inhibition at 1 µM [1]: 0% | inhibition at 10 µM [1]: 22 ± 7% | inhibition at 1 µM [2]: 0% | inhibition at 10 µM [2]: 4 ± 11% | inhibition at 1 µM [3]: 0% | inhibition at 10 µM [3]: 0%

CC(C)(C)OC(=O)NCC(NC(=O)C(F)(F)F)c1c[nH]c2ccc(Br)cc12 (stereo not shown) [Compound 13, tert-Butyl(2-(5-bromo-1H-indol-3-yl)-2-(2,2,2-trifluoroacetamido)ethyl)carbamate]
MIC [4, 21]: > 128 µg/mL | MIC (S. aureus ATCC 29213; Staphylococcus aureus, ATCC29213, read after 18 hours, read-out: MIC): 128 µg/mL (≈ 284 µM) | MIC [5, 21]: > 128 µg/mL | MIC (S. aureus ATCC 6538; Staphylococcus aureus, ATCC6538, read after 18 hours, read-out: MIC): 64 µg/mL (≈ 142 µM) | MIC (S. aureus ATCC 9144; Staphylococcus aureus, ATCC9144, read after 18 hours, read-out: MIC): > 128 µg/mL | MIC (S. aureus CIP 103428; Staphylococcus aureus, CIP103428, read after 18 hours, read-out: MIC): 64 µg/mL (≈ 142 µM) | MIC [6, 21]: > 128 µg/mL | MIC (S. aureus CIP 65.6; Staphylococcus aureus, CIP65, read after 18 hours, read-out: MIC): > 128 µg/mL | MIC (S. aureus SA-1199B; Staphylococcus aureus, SA1199B, 18 h): 64 µg/mL (≈ 142 µM) | MIC ([7]; Staphylococcus epidermidis, ATCC12228, read after 18 hours, read-out: MIC): > 128 µg/mL | MIC ([8]; Staphylococcus epidermidis, CIP103627, read after 18 hours, read-out: MIC): > 128 µg/mL | MIC (S. epidermidis CIP 81.55; Staphylococcus epidermidis, CIP81, read after 18 hours, read-out: MIC): > 128 µg/mL | MIC [9]: > 128 µg/mL | MIC ([10]; CIP5262, read after 18 hours, read-out: MIC): 128 µg/mL (≈ 284 µM) | MIC (E. faecalis ATCC 29212; Enterococcus faecalis, ATCC29212, read after 18 hours, read-out: MIC): > 128 µg/mL | MIC (E. faecium CIP 54.32; Enterococcus faecium, CIP54, read after 18 hours, read-out: MIC): > 128 µg/mL | MIC [11]: > 128 µg/mL | MIC [12]: > 128 µg/mL | MIC [13]: > 128 µg/mL | MIC ([14]; ATCC35657, read after 18 hours, read-out: MIC): > 128 µg/mL | MIC ([15]; CIP80, read after 18 hours, read-out: MIC): > 128 µg/mL | MIC [16]: > 128 µg/mL | MIC ([17]; Streptococcus agalactiae, ATCC12400, read after 18 hours, read-out: MIC): 128 µg/mL (≈ 284 µM) | MIC (S. aureus ATCC 25923): > 128 µg/mL | MIC (S. mitis CIP 103335; Streptococcus mitis, CIP103335, read after 18 hours, read-out: MIC): > 128 µg/mL | MIC (S. pneumoniae ATCC 49619): 128 µg/mL (≈ 284 µM) | MIC ([18]; Streptococcus pyogenes, CIP104226, read after 18 hours, read-out: MIC): 128 µg/mL (≈ 284 µM) | MIC [19]: > 128 µg/mL | MIC (S. pneumoniae ATCC 6303; Streptococcus pneumoniae, ATCC6303, read after 18 hours, read-out: MIC): 128 µg/mL (≈ 284 µM) | intrinsic antibacterial activity [20]: lack of intrinsic antibacterial activity

tert-Butyl(2-(4-bromo)benzamido-2-(5-bromo-1H-indol-3-yl)ethyl)carbamate [Compound 12a]
MIC [4]: >32 µg/mL | MIC (S. aureus ATCC 29213; read after 18 hours): >32 µg/mL | MIC [5]: >32 µg/mL | MIC (S. aureus ATCC 6538; read after 18 hours): >32 µg/mL | MIC (S. aureus ATCC 9144; read after 18 hours): >32 µg/mL | MIC (S. aureus CIP 103428; read after 18 hours): >32 µg/mL | MIC [6]: >32 µg/mL | MIC (S. aureus CIP 65.6; read after 18 hours): >32 µg/mL | MIC (S. aureus SA-1199B; S. aureus SA-1199B, read after 18 hours): >32 µg/mL | MIC ([7]; read after 18 hours): >32 µg/mL | MIC ([8]; read after 18 hours): >32 µg/mL | MIC (S. epidermidis CIP 81.55; read after 18 hours): >32 µg/mL | MIC ([10]; read after 18 hours): >128 µg/mL | MIC (E. faecalis ATCC 29212; read after 18 hours): >128 µg/mL | MIC (E. faecium CIP 54.32; read after 18 hours): >128 µg/mL | MIC ([14]; read after 18 hours): 64 µg/mL | MIC ([15]; read after 18 hours): >128 µg/mL | MIC ([17]; read after 18 hours): 64 µg/mL | MIC (S. mitis CIP 103335; read after 18 hours): >128 µg/mL | MIC ([18]; read after 18 hours): >128 µg/mL | MIC (S. pneumoniae ATCC 6303; read after 18 hours): 128 µg/mL | intrinsic antibacterial activity [20]: lack of intrinsic antibacterial activity
